This note sets out measurements from PMC7394005, “Assessing the Selectivity of FXR, LXRs, CAR, and RORγ Pharmaceutical Ligands With Reporter Cell Lines” (Frontiers in Pharmacology, 2020).

Type in all cases: cell-based
In one experiment the target is T1, human LXRβ (Homo sapiens, UniProt P55055).
T1 construct: LXRβ (G199-E461); expressed in transfected cells; host or cells: HG5LN (HeLa cells carrying the (GAL4RE)5-βGlob-Luc-SVNeo reporter)
T1 sequence (P55055 198-460 limits assumed): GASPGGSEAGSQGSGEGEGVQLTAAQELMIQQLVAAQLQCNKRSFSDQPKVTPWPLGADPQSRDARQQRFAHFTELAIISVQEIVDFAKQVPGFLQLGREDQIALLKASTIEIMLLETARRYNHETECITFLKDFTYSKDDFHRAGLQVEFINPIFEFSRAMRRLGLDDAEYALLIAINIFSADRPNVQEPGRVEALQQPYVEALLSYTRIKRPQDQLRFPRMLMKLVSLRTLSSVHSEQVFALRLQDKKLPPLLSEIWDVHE
Briefly: HG5LN GAL4-LXRβ reporter cell line, antagonist mode in presence of T0901317. Particulars: for LXRβ (T0901317 100 nM) % min act: in presence of T0901317 100 nM (80% of maximal activity), at 10^-5 M (10^-6 M *, 3 10^-6 M **). An excerpt: (§1) To construct GAL4-NR chimeras, individual LBDs of human FXR (R193-Q486), LXRα (A187-E447), LXRβ (G199-E461), CAR (M76-S348), and RORγ (S97-K518) were amplified by PCR with primers containing XhoI and SacI restriction sites (FXR), XhoI and BamHI (LXRs, CAR, RORγ) and inserted in pSG5-GAL4(DBD)-puromycin plasmid. To construct GAL4-CAR (+ APYLT) (M76-S353), the five amino acids APYLT were inserted by overlap extension PCR between amino acids P270 and D271 of CAR.
(§2) To characterize the specificity of chemicals for human FXR, LXRα, LXRβ, CAR and RORγ, we established in a similar manner HG5LN FXR, LXRα, LXRβ, CAR WT, CAR (APYLT) and RORγ reporter cell lines. […] These cells were stably transfected by pSG5-GAL4 (DBD)-NRs (LBD)-puromycin plasmid and selected in presence of 0.5 µg/ml puromycin. […] From each HG5LN NR cells, 5 to 10 clones were chosen for their ligand inducibility of luciferase expression. […] The most inducible clones were expanded and rechecked for inducibility and aliquots were frozen at different passages. One clone per receptor was maintained in culture and used for ligand screening. HG5LN cells were cultured in Dulbecco’s modified Eagle’s medium (DMEM): Nutrient Mixture F-12 (DMEM/F-12) containing phenol red and 1 g/l glucose and supplemented with 5% fetal bovine serum, 100 units/ml of penicillin, 100 µg/ml of streptomycin and 1 mg/ml geneticin, in 5% CO2 humidified atmosphere at 37°C. Stably transfected cell lines derived from HG5LN cells were cultured in the same culture medium supplemented with 0.5 µg/ml puromycin.
(§3) Individual reporter cell lines were seeded at a density of 40,000 cells per well in 96-well white opaque tissue culture plates (Greiner CellStar) in Dulbecco’s Modified Eagle Medium: Nutrient Mixture F-12 (DMEM/F-12) without phenol red and 1 g/l glucose and supplemented with 5% stripped fetal bovine serum, 100 units/ml of penicillin, 100 µg/ml of streptomycin (test medium). Chemicals to be tested were added 24h later, and cells were incubated at 37°C for 16h. Experiments were performed in quadruplicates. At the end of the incubation period, culture medium was replaced with test medium containing 0.3 mM luciferin solution. Luciferase activity was measured for 2s in intact living cells after 10 min stabilization using a Micro Beta Wallac luminometer (PerkinElmer). EC50 values were calculated using GraphPad Prism (GraphPad Software Inc).
(§4) Chemicals tested for agonism on FXR, LXRs, CAR (+ APYLT), PXR, and antagonism on CAR and RORγ were tested alone, without addition of any other ligand.
(§5) In the transactivation assay, each compound was tested at various concentrations in three independent experiments at least. For each experiment, tests were performed in quadruplicates for each concentration, and data are expressed by means values with standard deviations. Individual agonist dose–response curves, in the absence and presence of antagonist, were fitted using the sigmoid dose-response function of a graphics and statistics software program (GraphPad Prism, version 5.0). EC50 (effective concentration for half-maximal luciferase activity) and IC50 (half-maximal inhibitory concentration) values were calculated from equations used to fit the data in this graphic software. Transactivation data are presented as EC50 and IC50 values for each compound tested. To analyze significances, we compared individual compound treatments with controls using one-way analysis of variance (ANOVA) with the help of GraphPad Prism software.

The target in a further experiment is T2, human RORγ (Homo sapiens, UniProt P51449).
T2 construct: RORγ (S97-K518); expressed in transfected cells; host or cells: HG5LN (HeLa cells carrying the (GAL4RE)5-βGlob-Luc-SVNeo reporter)
T2 sequence (P51449 97-518): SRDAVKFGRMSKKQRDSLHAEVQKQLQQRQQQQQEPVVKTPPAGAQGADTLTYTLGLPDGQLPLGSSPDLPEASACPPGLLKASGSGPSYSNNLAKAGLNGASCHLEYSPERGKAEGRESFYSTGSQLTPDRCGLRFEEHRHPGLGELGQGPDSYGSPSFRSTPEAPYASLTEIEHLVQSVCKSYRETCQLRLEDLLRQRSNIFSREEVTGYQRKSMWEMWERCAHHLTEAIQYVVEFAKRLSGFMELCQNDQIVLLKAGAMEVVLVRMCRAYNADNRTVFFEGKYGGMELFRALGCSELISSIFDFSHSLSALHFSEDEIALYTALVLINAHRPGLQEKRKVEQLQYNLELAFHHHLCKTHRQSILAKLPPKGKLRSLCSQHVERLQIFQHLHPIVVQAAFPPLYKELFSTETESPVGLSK
Briefly: HG5LN GAL4-RORγ reporter cell line, agonist mode in presence of SR2211. Particulars: in presence of SR2211 1 mM, NE = No effect; for EC50: read-out: RORγ (SR2211 1 mM) EC50.
Source text: as §1, §2, §3, §4, §5

In another experiment the target is T3, human CAR (+ APYLT) (Homo sapiens, UniProt Q14994, INS270APYLT).
T3 construct: CAR (M76-S348); expressed in transfected cells; host or cells: HG5LN (HeLa cells carrying the (GAL4RE)5-βGlob-Luc-SVNeo reporter)
T3 sequence (Q14994 47-324 isoform Q14994-6): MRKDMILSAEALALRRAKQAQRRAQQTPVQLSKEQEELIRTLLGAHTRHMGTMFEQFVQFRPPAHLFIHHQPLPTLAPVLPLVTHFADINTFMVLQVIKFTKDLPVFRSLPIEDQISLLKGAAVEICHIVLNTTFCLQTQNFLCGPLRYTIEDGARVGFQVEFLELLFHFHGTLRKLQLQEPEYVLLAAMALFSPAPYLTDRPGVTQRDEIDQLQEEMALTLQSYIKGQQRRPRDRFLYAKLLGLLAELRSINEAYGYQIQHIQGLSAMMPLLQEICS
In words: HG5LN GAL4-CAR (+APYLT) reporter cell line, agonist mode. As to conditions: for EC50: HG5LN CAR + APYLT cells, tested alone, NE = No effect.
Source text: as §1, §2, §3, §4, §5

Where [1] appears, read: read-out: LXRβ (T0901317 100 nM) IC50, in presence of T0901317 100 nM, NE = No effect.

Where two headings read alike, the source gives them in different places.

Turning to `CCOC(=O)Nc1ccc2c(c1)N(C(=O)CN(CC)CC)c1ccccc1CC2` [CINPA1], the IC50 at human LXRβ (setting [1]) is more than 10 µM. The EC50 on human RORγ and on human CAR (+ APYLT) was more than 10 µM throughout.
As for `Clc1ccc(-c2nc3sccn3c2/C=N/OCc2ccc(Cl)c(Cl)c2)cc1` [CITCO], on human LXRβ (setting [1]), the IC50 was more than 10 µM. At human RORγ, the EC50 is more than 10 µM.
Consider `Clc1ccccc1C(c1ccccc1)(c1ccccc1)n1ccnc1` [Clotrimazole, clotrimazole], for which the IC50 at human LXRβ (setting [1]) is more than 10 µM. Besides, the EC50 at human RORγ is more than 10 µM. Besides, the Emax at 10 µM at human CAR (+ APYLT) (HG5LN, read-out: CAR (APYLT) % max act) is 23%.
As to `COc1cccc(Cn2cc(C(=O)Nc3ccc(C)c(S(=O)(=O)N4CCOCC4)c3)c(-c3ccc(C)cc3)n2)c1` [DY268], the IC50 on human LXRβ (setting [1]) was more than 10 µM. In addition, the EC50 at human RORγ and on human CAR (+ APYLT) was more than 10 µM each time.
Take `CC(C)(C)c1nc(-c2cccc(NS(=O)(=O)c3c(F)cccc3F)c2F)c(-c2ccnc(N)n2)s1` [Dabrafenib]: the IC50 at human LXRβ (setting [1]) is more than 10 µM. The EC50 at human RORγ and on human CAR (+ APYLT) was more than 10 µM each time.
Regarding `COC(=O)/C=C/c1cccc(N(Cc2ccc(-c3ccc(N(C)C)cc3)cc2)C(=O)C2CCCCC2)c1` [Feraxamine], the IC50 at human LXRβ (setting [1]) was more than 10 µM. Moreover, the EC50 on human RORγ and on human CAR (+ APYLT) was more than 10 µM in each case.
As to `Cc1cc(C)c(S(=O)(=O)N(Cc2ccc(-c3cccc(S(C)(=O)=O)c3)cc2)Cc2ccc(C(F)(F)F)o2)c(C)c1` [GSK2033], the IC50 on human LXRβ worked out at 0.01 ± 0.003 µM. The “LXRβ (T0901317 100 nM) % min act” value on human LXRβ (NE = No effect) is given as 2%. The EC50 at human RORγ and on human CAR (+ APYLT) was more than 10 µM in each case.
Regarding `O=C(O)Cc1cccc(OCCCN(Cc2cccc(C(F)(F)F)c2Cl)CC(c2ccccc2)c2ccccc2)c1` [GW3965], the EC50 on human RORγ and at human CAR (+ APYLT) was more than 10 µM each time.
For `CC(C)c1onc(-c2c(Cl)cccc2Cl)c1COc1ccc(/C=C/c2cccc(C(=O)O)c2)c(Cl)c1` [GW4064], the 50% inhibitory concentration (IC50) on human LXRβ (setting [1]) was more than 10 µM. Moreover, the EC50 on human RORγ and at human CAR (+ APYLT) was more than 10 µM throughout.
For `Cc1oc2ccccc2c1CNC(=O)NCc1cccs1` [S07662], the IC50 at human LXRβ (setting [1]) is more than 10 µM. Moreover, the EC50 at human RORγ and at human CAR (+ APYLT) was more than 10 µM each time.
For the compound `O=C(Nc1ccc(C(O)(C(F)(F)F)C(F)(F)F)cc1)c1ccccc1Cl` [SR0987], the IC50 on human LXRβ (setting [1]) was more than 10 µM. In addition, the EC50 on human CAR (+ APYLT) was more than 10 µM.
Turning to `CC(=O)Nc1nc(C)c(S(=O)(=O)Nc2ccc(C(O)(C(F)(F)F)C(F)(F)F)cc2)s1` [SR1001], the half-maximal inhibitory concentration (IC50) on human LXRβ (setting [1]) was more than 10 µM. Besides, the EC50 on human CAR (+ APYLT) is more than 10 µM.
`O=C(Nc1ccc(C(O)(C(F)(F)F)C(F)(F)F)cc1)c1ccc(C(F)(F)F)cc1` [SR1078]: the IC50 on human LXRβ (setting [1]) was more than 10 µM. Also, the “RORγ (SR2211 1 mM) % max act” value on human RORγ (100% = constitutive activity, DMSO 56 ± 5, at 10^-5 M (10^-6 M *, 3 10^-6 M **)) is 75%. Moreover, the concentration giving a half-maximal response (EC50) at human RORγ was 2.09 ± 0.131 µM; at human CAR (+ APYLT), more than 10 µM.
Consider `CCOC(=O)c1ccc(CN(Cc2ccc(-c3cccc(S(C)(=O)=O)c3)cc2)S(=O)(=O)c2c(C)cc(C)cc2C)o1` [SR9238], for which the IC50 on human LXRβ is 0.005 ± 0.001 µM. Further, the “LXR β-subtype specificity (fold, over α subtype)” value on human LXRβ (from IC50 values on LXRα and LXRβ) came out at 5 fold. For the same compound, the “LXRβ (T0901317 100 nM) % min act” value on human LXRβ (NE = No effect) worked out at 1%. The EC50 at human RORγ and on human CAR (+ APYLT) was more than 10 µM each time.
On to `Cc1cc(C)c(S(=O)(=O)N(CCc2cccc(Br)c2)Cc2ccc(-c3cccc(S(C)(=O)=O)c3)cc2)c(C)c1` [SR9243], for which, at human LXRβ, the IC50 was 0.059 ± 0.013 µM. Besides, the “LXRβ (T0901317 100 nM) % min act” value on human LXRβ (NE = No effect) amounted to 2%. For the same compound, the EC50 on human RORγ and on human CAR (+ APYLT) was more than 10 µM each time.
Consider `CCOP(=O)(OCC)C(=Cc1cc(C(C)(C)C)c(O)c(C(C)(C)C)c1)P(=O)(OCC)OCC` [SR12813], for which the IC50 at human LXRβ (setting [1]) was more than 10 µM. The EC50 at human RORγ and at human CAR (+ APYLT) was more than 10 µM each time.
Turning to `Fc1ccc(-c2c3cccc(C(F)(F)F)c3nn2Cc2ccc(F)cc2Cl)cc1` [WAY252623], the EC50 at human RORγ and at human CAR (+ APYLT) was more than 10 µM each time.
Take SPA70: the IC50 at human LXRβ (setting [1]) is more than 10 µM. The EC50 at human RORγ and on human CAR (+ APYLT) was more than 10 µM in each case.
